Measured values: the supplement of paper PMC5662764
± gives the standard deviation of the averaged measurements.

Columns and labels:
Assay in all cases: normalised growth rate inhibition (GR value) relative to DMSO control (GR (1 = untreated growth, 0 = cytostasis, <0 = cytotoxic)); higher = less growth inhibition
Settings in all cases: 72 h
[1] = test system: MDAMB231
Procedure: (§1)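 Breast cancer cell lines (BT-20, Hs 578T, MCF 10A, MCF7, MDA-MB-231, SK-BR-3) were plated in 384-well plates and treated 24 h later with drugs at six concentrations (0.04-10 µM). Viable cells were counted by Hoechst/dead-cell-stain imaging at 0 and 72 h. Counts were normalised to DMSO controls on the same plate to give the relative cell count and the growth-rate inhibition (GR) value; technical plate triplicates were averaged for each biological replicate.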

[2] = test system: BT20
Procedure: as §1

[3] = test system: SKBR3
Procedure: as §1

[4] = test system: MCF7
Procedure: as §1

[5] = test system: HS578T
Procedure: as §1

[6] = test system: MCF10A
Procedure: as §1

Structure (SMILES)	normalised growth rate inhibition ([1]; 0.04 µM)	normalised growth rate inhibition ([1]; 0.12 µM)	normalised growth rate inhibition ([1]; 0.37 µM)	normalised growth rate inhibition ([1]; 1.11 µM)	normalised growth rate inhibition ([1]; 3.33 µM)	normalised growth rate inhibition ([1]; 10 µM)	normalised growth rate inhibition ([2]; 0.04 µM)	normalised growth rate inhibition ([2]; 0.12 µM)	normalised growth rate inhibition ([2]; 0.37 µM)	normalised growth rate inhibition ([2]; 1.11 µM)	normalised growth rate inhibition ([2]; 3.33 µM)	normalised growth rate inhibition ([2]; 10 µM)	normalised growth rate inhibition ([3]; 0.04 µM)	normalised growth rate inhibition ([3]; 0.12 µM)	normalised growth rate inhibition ([3]; 0.37 µM)	normalised growth rate inhibition ([3]; 1.11 µM)	normalised growth rate inhibition ([3]; 3.33 µM)	normalised growth rate inhibition ([3]; 10 µM)	normalised growth rate inhibition ([4]; 0.04 µM)	normalised growth rate inhibition ([4]; 0.12 µM)	normalised growth rate inhibition ([4]; 0.37 µM)	normalised growth rate inhibition ([4]; 1.11 µM)	normalised growth rate inhibition ([4]; 3.33 µM)	normalised growth rate inhibition ([4]; 10 µM)	normalised growth rate inhibition ([5]; 0.04 µM)	normalised growth rate inhibition ([5]; 0.12 µM)	normalised growth rate inhibition ([5]; 0.37 µM)	normalised growth rate inhibition ([5]; 1.11 µM)	normalised growth rate inhibition ([5]; 3.33 µM)	normalised growth rate inhibition ([5]; 10 µM)	normalised growth rate inhibition ([6]; 0.04 µM)	normalised growth rate inhibition ([6]; 0.12 µM)	normalised growth rate inhibition ([6]; 0.37 µM)	normalised growth rate inhibition ([6]; 1.11 µM)	normalised growth rate inhibition ([6]; 3.33 µM)	normalised growth rate inhibition ([6]; 10 µM)
Nc1cccc(-c2cc3c(Oc4cccc(O)c4)ncnc3[nH]2)c1 [TWS-119]	0.975 ± 0.056	0.961 ± 0.07	0.929 ± 0.084	0.785 ± 0.056	0.619 ± 0.021	0.0363 ± 0.044	1.02 ± 0.034	0.994 ± 0.056	0.971 ± 0.055	0.885 ± 0.11	0.696 ± 0.096	0.0129 ± 0.081	1.09 ± 0.077	0.989 ± 0.074	1.06 ± 0.044	1.02 ± 0.043	0.48 ± 0.095	-0.212 ± 0.26	1.06 ± 0.061	0.984 ± 0.053	0.991 ± 0.071	0.963 ± 0.079	0.616 ± 0.079	-0.165 ± 0.1	1.02 ± 0.014	0.9855 ± 0.0042	0.978 ± 0.011	0.8808 ± 0.0081	0.707 ± 0.057	-0.081 ± 0.15	1.02 ± 0.013	1.01 ± 0.011	1.02 ± 0.0082	1.02 ± 0.024	0.912 ± 0.11	0.0326 ± 0.084
NC1(c2ccc(-c3nc4ccn5c(=O)[nH]nc5c4cc3-c3ccccc3)cc2)CCC1 [MK-2206]	0.968 ± 0.039	0.904 ± 0.039	0.821 ± 0.05	0.806 ± 0.061	0.757 ± 0.051	0.391 ± 0.35	0.974 ± 0.087	0.902 ± 0.12	0.678 ± 0.13	0.583 ± 0.17	0.453 ± 0.2	0.08 ± 0.29	0.761 ± 0.12	0.603 ± 0.084	0.484 ± 0.06	0.429 ± 0.048	0.283 ± 0.059	-0.0652 ± 0.015	0.616 ± 0.12	0.502 ± 0.086	0.278 ± 0.096	0.291 ± 0.12	0.176 ± 0.093	-0.104 ± 0.14	0.8934 ± 0.0036	0.803 ± 0.035	0.577 ± 0.21	0.665 ± 0.064	0.638 ± 0.053	0.458 ± 0.29	0.99 ± 0.038	0.972 ± 0.036	0.705 ± 0.22	0.892 ± 0.067	0.833 ± 0.082	0.429 ± 0.09
